# Counter-ions that a name gives are not always drawn. Like-named read-outs stand apart in the source and are kept apart here.
# Legend:
# Type in all cases: cell-based
# NR1A/2A NMDA receptor = NR1A/2A NMDA receptor (Rattus norvegicus, UniProt P35439+Q00959); assay: Xenopus oocyte expression system, two-electrode voltage clamp, NR1A/2A
# Text: (§1) Electrophysiological assays may be utilized to characterize the actions of potential subtype-selective ligands at NMDA receptors expressed in Xenopus oocytes. The ligand may be assayed at the different subunit combinations of cloned rat NMDA receptors corresponding to the four putative NMDA receptor subtypes (Moriyoshi et al., Nature (Lond.) 354:31-37 (1991); Monyer et al., Science (Washington, D.C.) 256:1217-1221 (1992); Kutsuwada et al., Nature (Lond.) 358:36-41 (1992); Sugihara et al., Biochem. Biophys. Res. Comm. 185:826-832 (1992)).
# (§2) Using fixed saturating concentrations of agonists (glutamate 100 μM, glycine 1-10 μM depending on subunit combination), the inhibitory potency of a putative subtype-selective ligand may be assayed at the NMDA receptors assembled from NR1A/2A, NR1A/2B, NR1A/2C and NR1A/2D subunit combinations.
# (§3) The Xenopus oocyte expression system. Mature female Xenopus laevis were anaesthetized (20-40 min) using 0.15% 3-aminobenzoic acid ethyl ester (MS-222) and 2-4 ovarian lobes were surgically removed. Oocytes at developmental stages IV-VI (Dumont, J. N., J. Morphol. 136:153-180 (1972)), were dissected from the ovary still surrounded by enveloping ovarian tissues. Follicle-enclosed oocytes were micro-injected with 1:1 mixtures of cRNA:NR1A+NR2A, 2B, 2C or 2D; injecting ˜2, 5, or 20 ng of RNA encoding each receptor subunit. NR1A encoding cRNA was injected alone at ˜20 ng. Oocytes were stored in Barth's medium containing (in mM): NaCl, 88; KCl, 1; CaCl2, 0.41; Ca(NO3)2, 0.33; MgSO4, 0.82; NaHCO3, 2.4; HEPES 5; pH 7.4, with 0.1 mg/mL gentamycin sulphate. While oocytes were still surrounded by enveloping ovarian tissues the Barth's medium was supplemented with 0.1% bovine serum. Oocytes were defolliculated 1-2 days following injections by treatment with collagenase (0.5 mg/mL Sigma Type I for 0.5-1 hr) (Miledi and Woodward, J. Physiol. (Lond.) 416:601-621 (1989)) and subsequently stored in serum-free medium.
# (§4) Electrical recordings were made using a conventional two-electrode voltage clamp (Dagan TEV-200) over periods ranging between 3-21 days following injection. Oocytes were placed in a 0.1 mL recording chamber continuously perfused (5-15 mL min^−1) with frog Ringer's solution containing (in mM): NaCl, 115; KCl, 2; CaCl2, 1.8; HEPES, 5; pH 7.4. Drugs were applied by bath perfusion. When using the more rapid flow rates, half-times for mid-chamber solution changes were between 2-3 sec, however, exchange rates for drug solutions at the oocyte surface (i.e. beneath the vitelline envelope and among the tangles of microvilli) were probably considerably longer (Woodward et al., Mol. Pharmacol. 41:89-103 (1992)). Zero-Ca^2+/Ba^2+ Ringer had the composition (in mM): NaCl, 115; KCl, 2; BaCl2, 1.8; HEPES, 5; pH 7.4. Intraoocyte injections were made by pneumatic pressure-pulse ejection from micropipettes (Miledi and Parker, J. Physiol. (Lond.) 357:173-183 (1984)). Injection solutions of EGTA (40-400 mM) and BAPTA (50-500 mM) were made up in H2O, pH adjusted to 7.4 with KOH or HCl, and filtered to minimize plugging (Acrodisc-13, […]). Pressure was set between 200-400 kPa. The volume of injections was regulated by adjusting the time of pulses (0.1-1 sec) and was estimated by measuring the diameters of ejected droplets.
# (§5) Concentration-inhibition curves were fit with equation 2.
# (§6) I/Icontrol=1/(1+([antagonist]/10^−pIC50)^n) Eq. 2
# (§7) in which Icontrol is the current evoked by agonists alone, pIC50=−log IC50, […] is the concentration of antagonist that produces half maximal inhibition, and n is the slope factor. For incomplete curves analysis by fitting was unreliable and IC50 values were calculated by simple regression over linear portions of the curves (Origin: Microcal Software).
# (§8) Drugs were initially dissolved at concentrations of 10-100 mM in DMSO. Dilutions were then made to generate a series of DMSO stock solutions over the range 10 μM to 100 mM. Working solutions were made by 1000-3000 fold dilution of stocks into Ringer. […]
# NR1A/2B NMDA receptor = NR1A/2B NMDA receptor (Rattus norvegicus, UniProt P35439+Q00960); assay: Xenopus oocyte expression system, two-electrode voltage clamp, NR1A/2B
# NR1A/2B NMDA receptor, sequence (Q00960 27-1482, other chains not shown): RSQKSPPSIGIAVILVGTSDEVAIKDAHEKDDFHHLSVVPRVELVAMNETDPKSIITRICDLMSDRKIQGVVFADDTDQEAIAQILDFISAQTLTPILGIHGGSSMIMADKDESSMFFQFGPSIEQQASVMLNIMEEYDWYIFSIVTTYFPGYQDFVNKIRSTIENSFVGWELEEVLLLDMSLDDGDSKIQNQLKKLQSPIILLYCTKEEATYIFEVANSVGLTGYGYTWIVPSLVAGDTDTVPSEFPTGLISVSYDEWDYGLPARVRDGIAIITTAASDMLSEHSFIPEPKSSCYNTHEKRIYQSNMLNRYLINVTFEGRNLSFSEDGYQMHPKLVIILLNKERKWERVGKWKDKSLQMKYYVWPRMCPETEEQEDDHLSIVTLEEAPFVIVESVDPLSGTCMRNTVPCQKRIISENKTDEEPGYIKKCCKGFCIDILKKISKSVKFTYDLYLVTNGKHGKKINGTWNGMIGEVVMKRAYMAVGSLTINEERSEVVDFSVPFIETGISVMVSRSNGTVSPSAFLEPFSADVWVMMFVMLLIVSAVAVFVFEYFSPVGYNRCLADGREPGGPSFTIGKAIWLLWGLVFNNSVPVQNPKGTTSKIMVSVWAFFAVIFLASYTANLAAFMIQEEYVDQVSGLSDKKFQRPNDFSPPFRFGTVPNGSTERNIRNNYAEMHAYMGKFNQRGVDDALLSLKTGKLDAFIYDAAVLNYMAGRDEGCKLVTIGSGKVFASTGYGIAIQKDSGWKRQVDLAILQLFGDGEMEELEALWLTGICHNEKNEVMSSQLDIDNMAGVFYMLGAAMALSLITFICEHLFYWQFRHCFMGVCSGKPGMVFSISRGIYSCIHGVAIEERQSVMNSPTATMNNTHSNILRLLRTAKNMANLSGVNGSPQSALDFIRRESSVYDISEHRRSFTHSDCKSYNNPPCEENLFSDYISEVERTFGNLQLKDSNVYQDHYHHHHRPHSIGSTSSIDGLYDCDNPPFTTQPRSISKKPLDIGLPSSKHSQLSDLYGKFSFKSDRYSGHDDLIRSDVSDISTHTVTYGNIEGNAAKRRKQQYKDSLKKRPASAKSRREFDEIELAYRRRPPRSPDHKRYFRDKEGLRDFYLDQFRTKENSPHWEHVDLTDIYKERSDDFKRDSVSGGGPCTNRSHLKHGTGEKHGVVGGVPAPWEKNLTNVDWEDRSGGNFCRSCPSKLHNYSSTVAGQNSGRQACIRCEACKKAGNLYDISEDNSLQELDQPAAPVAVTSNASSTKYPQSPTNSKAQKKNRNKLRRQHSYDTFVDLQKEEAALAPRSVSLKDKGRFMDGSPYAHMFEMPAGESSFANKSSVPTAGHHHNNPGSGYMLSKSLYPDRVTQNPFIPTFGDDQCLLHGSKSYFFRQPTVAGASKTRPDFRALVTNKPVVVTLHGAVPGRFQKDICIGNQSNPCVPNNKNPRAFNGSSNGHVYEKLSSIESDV
# Text: as §1, §2, §3, §4, §5, §6, §7, §8
# NR1A/2C NMDA receptor = NR1A/2C NMDA receptor (Rattus norvegicus, UniProt P35439+Q00961); assay: Xenopus oocyte expression system, two-electrode voltage clamp, NR1A/2C
# NR1A/2C NMDA receptor, sequence (Q00961 20-1237, other chains not shown): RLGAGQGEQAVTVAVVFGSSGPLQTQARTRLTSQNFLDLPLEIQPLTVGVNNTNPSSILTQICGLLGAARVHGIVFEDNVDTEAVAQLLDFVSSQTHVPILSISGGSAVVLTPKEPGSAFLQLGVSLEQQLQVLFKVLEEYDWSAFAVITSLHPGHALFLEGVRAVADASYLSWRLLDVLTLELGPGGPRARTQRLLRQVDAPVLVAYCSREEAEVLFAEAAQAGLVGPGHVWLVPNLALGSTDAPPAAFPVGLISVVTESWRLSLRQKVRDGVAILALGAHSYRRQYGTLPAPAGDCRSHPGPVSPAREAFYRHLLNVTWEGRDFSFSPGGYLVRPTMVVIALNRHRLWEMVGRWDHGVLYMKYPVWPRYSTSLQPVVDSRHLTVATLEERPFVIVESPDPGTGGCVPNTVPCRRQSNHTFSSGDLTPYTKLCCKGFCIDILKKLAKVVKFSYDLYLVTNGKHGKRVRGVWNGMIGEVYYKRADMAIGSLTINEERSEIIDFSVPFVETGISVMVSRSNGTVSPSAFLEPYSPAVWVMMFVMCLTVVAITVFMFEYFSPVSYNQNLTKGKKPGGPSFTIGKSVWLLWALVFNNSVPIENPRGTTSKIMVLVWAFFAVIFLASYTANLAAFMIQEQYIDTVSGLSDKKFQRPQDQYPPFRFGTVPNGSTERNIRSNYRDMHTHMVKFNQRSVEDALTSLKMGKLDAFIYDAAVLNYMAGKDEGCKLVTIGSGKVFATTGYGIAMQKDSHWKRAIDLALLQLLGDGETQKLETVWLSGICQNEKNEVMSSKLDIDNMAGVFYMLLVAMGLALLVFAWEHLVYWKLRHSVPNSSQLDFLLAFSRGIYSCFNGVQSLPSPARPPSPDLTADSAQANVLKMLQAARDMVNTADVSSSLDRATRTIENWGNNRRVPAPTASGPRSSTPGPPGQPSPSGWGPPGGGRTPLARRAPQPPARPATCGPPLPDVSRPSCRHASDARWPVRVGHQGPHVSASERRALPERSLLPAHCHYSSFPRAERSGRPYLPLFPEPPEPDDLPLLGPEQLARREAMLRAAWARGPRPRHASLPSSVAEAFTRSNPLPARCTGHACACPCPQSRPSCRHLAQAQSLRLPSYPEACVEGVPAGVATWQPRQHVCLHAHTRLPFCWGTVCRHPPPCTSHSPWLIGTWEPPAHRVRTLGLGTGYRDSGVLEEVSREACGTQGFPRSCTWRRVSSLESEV
# Text: as §1, §2, §3, §4, §5, §6, §7, §8
# [1] = cloned NR1A/2A subunits expressed in Xenopus oocytes, inhibition of agonist-evoked membrane current, read-out: 1A/2A IC50
# [2] = cloned NR1A/2B subunits expressed in Xenopus oocytes, inhibition of agonist-evoked membrane current, read-out: 1A/2B IC50
# [3] = cloned NR1A/2C subunits expressed in Xenopus oocytes, inhibition of agonist-evoked membrane current, read-out: 1A/2C IC50
# NR1A/2A NMDA receptor, sequence (Q00959 20-1464 limits assumed, other chains not shown): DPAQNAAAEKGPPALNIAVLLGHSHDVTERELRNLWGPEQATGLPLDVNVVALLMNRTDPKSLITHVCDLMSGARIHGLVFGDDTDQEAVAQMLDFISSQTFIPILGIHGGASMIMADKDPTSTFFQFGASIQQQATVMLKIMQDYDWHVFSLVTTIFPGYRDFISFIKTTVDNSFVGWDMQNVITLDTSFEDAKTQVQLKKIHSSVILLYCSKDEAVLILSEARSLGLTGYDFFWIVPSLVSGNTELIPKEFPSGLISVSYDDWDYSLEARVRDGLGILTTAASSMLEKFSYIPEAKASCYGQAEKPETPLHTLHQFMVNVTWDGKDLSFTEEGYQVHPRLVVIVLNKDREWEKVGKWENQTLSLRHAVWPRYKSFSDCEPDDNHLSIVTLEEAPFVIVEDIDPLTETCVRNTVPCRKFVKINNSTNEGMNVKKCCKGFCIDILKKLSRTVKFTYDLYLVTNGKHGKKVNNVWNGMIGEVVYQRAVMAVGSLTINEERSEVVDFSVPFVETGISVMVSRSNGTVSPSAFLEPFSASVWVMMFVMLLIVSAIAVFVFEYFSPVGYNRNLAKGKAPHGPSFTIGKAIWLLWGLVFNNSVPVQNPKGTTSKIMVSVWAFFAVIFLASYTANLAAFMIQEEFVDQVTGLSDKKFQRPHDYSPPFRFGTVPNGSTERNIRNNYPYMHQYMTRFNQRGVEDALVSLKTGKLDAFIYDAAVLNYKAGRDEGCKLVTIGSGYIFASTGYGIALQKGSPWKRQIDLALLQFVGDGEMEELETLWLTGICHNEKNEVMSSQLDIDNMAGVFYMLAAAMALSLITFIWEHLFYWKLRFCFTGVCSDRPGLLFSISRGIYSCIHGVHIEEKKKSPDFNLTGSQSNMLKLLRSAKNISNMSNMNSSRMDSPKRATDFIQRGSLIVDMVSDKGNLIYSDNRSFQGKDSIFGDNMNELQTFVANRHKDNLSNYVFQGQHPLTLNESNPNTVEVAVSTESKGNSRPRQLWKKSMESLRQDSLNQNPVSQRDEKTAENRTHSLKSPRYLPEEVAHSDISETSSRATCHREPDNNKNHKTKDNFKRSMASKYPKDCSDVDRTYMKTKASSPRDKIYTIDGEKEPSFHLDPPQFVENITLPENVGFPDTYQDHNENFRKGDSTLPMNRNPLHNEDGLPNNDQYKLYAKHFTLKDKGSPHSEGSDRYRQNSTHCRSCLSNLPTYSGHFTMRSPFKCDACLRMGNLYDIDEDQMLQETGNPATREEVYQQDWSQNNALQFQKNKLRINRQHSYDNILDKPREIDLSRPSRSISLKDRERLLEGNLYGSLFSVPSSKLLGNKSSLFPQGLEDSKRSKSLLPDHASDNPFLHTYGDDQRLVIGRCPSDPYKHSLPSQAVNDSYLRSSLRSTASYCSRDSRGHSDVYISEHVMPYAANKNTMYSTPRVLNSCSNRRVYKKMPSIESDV
SMILES,IC50 (NR1A/2A NMDA receptor; [1]) [µM],IC50 (NR1A/2B NMDA receptor; [2]) [µM],IC50 (NR1A/2C NMDA receptor; [3]) [µM],IC50 (NR1A/2A NMDA receptor) [µM],IC50 (NR1A/2B NMDA receptor) [µM],IC50 (NR1A/2C NMDA receptor) [µM]
"OC1(Cc2ccccc2)CCN(CCCc2ccccc2)CC1 [Ex. 16, 4-Benzyl-4-hydroxy-1-(3-phenylpropyl)piperidine]",20,17,80,–,–,–
"c1ccc(OCCN2CCc3ccccc3C2)cc1 [Ex. 18, N-(2-Phenoxyethyl)-1,2,3,4-tetrahydroisoquinoline]",140,35,> 100,–,–,–
"c1ccc(OCCCN2CCc3ccccc3C2)cc1 [Ex. 19, N-(3-Phenoxypropyl)-1,2,3,4-tetrahydroisoquinoline]",75,10,275,–,–,–
"O=C(c1ccccc1)C1CCN(CCOc2ccccc2)CC1 [Ex. 27, 4-Benzoyl-1-(2-phenoxyethyl)piperidine]",> 300,50,> 300,–,–,–
"O=C(Nc1ccc([N+](=O)[O-])cc1)N1CCC(Cc2ccccc2)CC1 [Ex. 30, 1-[2-aza-1-oxo-2-(4-nitrophenyl)ethyl]-4-benzylpiperidine]",95,8,> 100,–,–,–
"COC(=O)CCCCN1CCCC(Cc2ccccc2)C1 (stereo not drawn) [Ex. 34, 5-(3-Benzylpiperidinyl)valeric acid methyl ester]",> 300,240,> 300,–,–,–
"CCOC(=O)CCCN1CCCC(Cc2ccccc2)C1 (stereo not drawn) [Ex. 35, 4-(3-Benzylpiperidinyl)butyric acid ethyl ester]",> 300,150,> 300,–,–,–
"C=CCN1CCCCC1Cc1ccccc1 (stereo not drawn) [Ex. 38(A), 1-Allyl-2-benzylpiperidine, hydrobromide]",–,–,–,25,72,65
"C=CC[N+]1(CC=C)CCCCC1Cc1ccccc1 (stereo not drawn) [Ex. 38(B), 2-benzyl-l,1-diallylpiperidinium iodide]",28,50,50,–,–,–
"CCOC(=O)CCCN1CCC(Cc2ccccc2)CC1 [Ex. 41, 4-(4-Benzylpiperidinyl) butyric acid ethyl ester hydrobromide salt]",> 300,> 300,> 300,–,–,–
"NCCCN1CCC(Cc2ccccc2)CC1 [Ex. 47, 4-Benzyl-1-(3-aminopropyl) piperidine]",270,40,> 300,–,–,–
"OCCCCN1CCC(Cc2ccccc2)CC1 [Ex. 86, 4-Benzyl-1-(4-hydroxybutyl)piperidine hydrobromide]",> 300,12,> 300,–,–,–
"OCCCN1CCC(O)(Cc2ccccc2)CC1 [Ex. 87, 4-Benzyl-4-hydroxy-1-(3-hydroxypropyl)piperidine]",> 300,7,> 300,–,–,–
"OCC1CC2CC(Cc3ccccc3)CCN2C1 (stereo not drawn) [Ex. 88, 7-Benzyl-1,2,3,5,6,7,8,9-octahydro-2-(hydroxymethyl)indolizine]",> 300,5,> 300,–,–,–
"OCCCN1CCC(Cc2ccc(F)cc2)CC1 [Ex. 90, 4-(4-Fluorobenzyl)-1-(3-hydroxypropyl) piperidine hydrobromide]",> 300,1.3,> 300,–,–,–
"C[C@@H](CO)CN1CCC(Cc2ccc(F)cc2)CC1 [Ex. 92, (R)-4-(4-Fluorobenzyl)-1-(3-hydroxy-2-methylpropyl) piperidine hydrochloride]",> 300,8,> 300,–,–,–
"CC(O)CCN1CCC(Cc2ccc(N)cc2)CC1 (stereo not drawn) [Ex. 105, 4-(4-aminobenzyl)-1-(3-hydroxy-butyl) piperidine hydrochloride]",120,17,> 300,–,–,–
"O=c1[nH]c2ccc(OCCCN3CCc4ccccc4C3)cc2[nH]1 [Ex. 108, N-(3-(2-oxobenzimidazol-5-oxy)propyl)-1,2,3,4-tetrahydroisoquinoline]",24,7.5,> 300,–,–,–
"O=c1[nH]c2ccc(OCCN3CCc4ccccc4C3)cc2[nH]1 [Ex. 109, N-(2-(2-oxobenzimidazol-5-oxy)ethyl)-1,2,3,4-tetrahydroisoquinoline]",190,140,> 300,–,–,–

# Reference: patent publication US6534522B2, “Subtype-selective NMDA receptor ligands and the use thereof” (Warner-Lambert Company, priority 1995, dated 2003)
